This passage reports inhibition of growth and IC50 results from ChEMBL document CHEMBL4177615 (Bioorg Med Chem, 2017).

Molecules are shown by their SMILES.

The subject of assay [1] is Plasmodium falciparum. The assay can be described thus: Antimalarial activity against Plasmodium falciparum 3D7 infected in ARh+ human erythrocytes at 10 uM after 42 to 48 hrs by Picogreen staining-based 96 well microplate assay. Type of assay: functional. Particulars: read-out: GI.
Assay [2] has as its system Plasmodium falciparum. The assay can be described thus: Antimalarial activity against Plasmodium falciparum 3D7 infected in ARh+ human erythrocytes at 1 uM after 42 to 48 hrs by Picogreen staining-based 96 well microplate assay. The format is functional. Conditions: read-out: GI.
Assay [3] deals with Plasmodium falciparum. The assay can be described thus: Antimalarial activity against Plasmodium falciparum 3D7 infected in ARh+ human erythrocytes at 0.1 uM after 42 to 48 hrs by Picogreen staining-based 96 well microplate assay. Type of assay: functional. Conditions: read-out: GI.
The subject of assay [4] is Plasmodium falciparum. As to the kind of experiment: Antimalarial activity against Plasmodium falciparum 3D7 infected in ARh+ human erythrocytes at 0.01 uM after 42 to 48 hrs by Picogreen staining-based 96 well microplate assay. Type of assay: functional. Conditions: read-out: GI.
Assay [5] relates to Plasmodium falciparum. As to the kind of experiment: Antimalarial activity against Plasmodium falciparum 3D7 infected in ARh+ human erythrocytes after 42 to 48 hrs by Picogreen staining-based 96 well microplate assay. Type of assay: functional, organism-based.

For orientation: IC50 means the point on the concentration scale where inhibition reaches its midpoint. Low readings indicate greater potency in that assay, high ones weaker potency in that assay. As to `O=C(c1ccccc1)N1CCC(Nc2nc3ccccc3n2Cc2ccc(F)cc2)CC1`, the inhibition of growth at 10 µM with Plasmodium falciparum [1] is 18%. In the assay with Plasmodium falciparum [2], the inhibition of growth at 1 µM was 8%. For the same compound, in the assay with Plasmodium falciparum [3], the inhibition of growth at 0.1 µM was found to be 0%. In addition, the inhibition of growth at 0.01 µM in the assay on Plasmodium falciparum [4] was found to be 5%. In the assay with Plasmodium falciparum [5], this compound had an IC50 greater than 10000 nM.
For `CCC(CC)Cn1c(NC2CCN(CCc3ccc(OC)cc3)CC2)nc2ccccc21`, in that order: 95%, 100%, 16%, 0% and 240 nM.
Consider `CCCn1c(NC2CCN(CCc3ccc(OC)cc3)CC2)nc2ccccc21`, for which the inhibition of growth at 10 µM in the assay on Plasmodium falciparum [1] was 100%. In addition, the inhibition of growth at 1 µM with Plasmodium falciparum [2] amounted to 82%. For the same compound, the inhibition of growth at 0.1 µM in the assay with Plasmodium falciparum [3] was determined as 3%. Further, the inhibition of growth at 0.01 µM in the assay on Plasmodium falciparum [4] was found to be 0%. Moreover, the half-inhibitory concentration (IC50) with Plasmodium falciparum [5] came out at 416 nM.
`Fc1ccc(Cn2c(NC3CCN(CC4CC4)CC3)nc3ccccc32)cc1`: in the assay on Plasmodium falciparum [1], the inhibition of growth at 10 µM worked out at 98%. In the assay with Plasmodium falciparum [2], the inhibition of growth at 1 µM was found to be 21%. The inhibition of growth at 0.1 µM in the assay on Plasmodium falciparum [3] turned out to be 0%. Besides, the inhibition of growth at 0.01 µM with Plasmodium falciparum [4] came to 0%. Also, 2240 nM corresponded to half-maximal inhibition in the assay on Plasmodium falciparum [5] (IC50).
Consider `O=C(Nc1ccccc1)N1CCC(Nc2nc3ccccc3n2Cc2ccc(F)cc2)CC1`, for which, in the assay with Plasmodium falciparum [1], the inhibition of growth at 10 µM is 35%. Further, the inhibition of growth at 1 µM in the assay on Plasmodium falciparum [2] was determined as 7%. Moreover, the inhibition of growth at 0.1 µM in the assay on Plasmodium falciparum [3] amounted to 3%. The inhibition of growth at 0.01 µM in the assay on Plasmodium falciparum [4] was determined as 0%. Moreover, in the assay on Plasmodium falciparum [5], the 50% inhibitory concentration (IC50) was greater than 10000 nM.
Take `O=C(Nc1ccc(F)cc1F)N1CCC(Nc2nc3ccccc3n2Cc2ccc(F)cc2)CC1`: the inhibition of growth at 10 µM with Plasmodium falciparum [1] amounted to 39%. For the same compound, the inhibition of growth at 1 µM in the assay on Plasmodium falciparum [2] was 4%. In the assay on Plasmodium falciparum [3], the inhibition of growth at 0.1 µM was determined as 0%. For the same compound, the inhibition of growth at 0.01 µM with Plasmodium falciparum [4] came to 2%. The compound also showed an IC50 in the assay on Plasmodium falciparum [5] greater than 10000 nM.
For `O=C(c1ccc(Cl)cc1)N1CCC(Nc2nc3ccccc3n2Cc2ccc(F)cc2)CC1`, in that order: 36%, 5%, 3%, 4% and greater than 10000 nM.
As to `CCCCCCn1c(NC2CCN(CCc3ccc(OC)cc3)CC2)nc2ccccc21`, the inhibition of growth at 10 µM in the assay on Plasmodium falciparum [1] came out at 100%. Moreover, the inhibition of growth at 1 µM in the assay on Plasmodium falciparum [2] was 100%. In addition, in the assay with Plasmodium falciparum [3], the inhibition of growth at 0.1 µM was determined as 95%. The inhibition of growth at 0.01 µM in the assay on Plasmodium falciparum [4] was 6%. Besides, in the assay with Plasmodium falciparum [5], the IC50 was 29 to 30 nM.
Turning to `CC(C)(C)NC(=O)N1CCC(Nc2nc3ccccc3n2Cc2ccc(F)cc2)CC1`, the inhibition of growth at 10 µM in the assay on Plasmodium falciparum [1] was found to be 43%. Also, the inhibition of growth at 1 µM in the assay with Plasmodium falciparum [2] turned out to be 6%. For the same compound, the inhibition of growth at 0.1 µM in the assay on Plasmodium falciparum [3] worked out at 2%. Further, the inhibition of growth at 0.01 µM in the assay with Plasmodium falciparum [4] is 0%. Besides, in the assay with Plasmodium falciparum [5], the 50% inhibitory concentration (IC50) was greater than 10000 nM.
In the same order, the values of `Fc1ccc(Cn2c(NC3CCN(CC4CCCCC4)CC3)nc3ccccc32)cc1` are 100%, 48%, 14%, 0% and 857 nM.
For `COc1ccc(CCN2CCN(Cc3nc4ccccc4n3Cc3ccc(F)cc3)CC2)cc1`, in that order: 72%, 12%, 0%, 3% and 4640 nM.
In the same order, the values of `COc1ccc(NC(=O)N2CCC(Nc3nc4ccccc4n3Cc3ccc(F)cc3)CC2)c(OC)c1` are 57%, 5%, 1%, 0% and 8140 nM.
With `Fc1ccc(Cn2c(NC3CCN(C/C=C/c4ccccc4)CC3)nc3ccccc32)cc1`, the inhibition of growth at 10 µM with Plasmodium falciparum [1] was determined as 100%. Besides, the inhibition of growth at 1 µM in the assay with Plasmodium falciparum [2] came out at 55%. Also, the inhibition of growth at 0.1 µM in the assay on Plasmodium falciparum [3] was 12%. Besides, the inhibition of growth at 0.01 µM with Plasmodium falciparum [4] was 1%. Also, in the assay on Plasmodium falciparum [5], it took 718 nM to reach half-maximal inhibition (IC50).
In the same order, the values of `Fc1ccc(Cn2c(NC3CCN(CCc4ccccc4)CC3)nc3ccccc32)cc1` are 100%, 90%, 43%, 9% and 125 nM.
For `CN1CCC(Nc2nc3ccccc3n2Cc2ccc(F)cc2)CC1`, in that order: 100%, 2%, 0%, 0% and 3090 nM.
For `COc1ccc(CCN2CCC(Nc3nc4ccccc4n3Cc3ccccc3)CC2)cc1`, in that order: 100%, 82%, 14%, 0% and 344 nM.
